# Where two headings read alike, the source gives them in different places.
# Experiments:
# ferrets = details: ref Bradner et al, 1990; cited from earlier work
# dog = details: ref Nicaise and Usakewicz, 1989; cited from earlier work
# mice, rats and dogs = details: cited from earlier work
# [1] = Pharmacokinetics of total TEMMC in plasma (HPLC, non-compartmental)
# Procedure: (§1) In a phase I study of 82 patients with confirmed malignancy, we administered BMS-181174 at doses of 0.8-75 mg m-2 by intravenous injection every 28 days. At least three patients were evaluated at each dose level, and 174 courses were administered. […] BMS- 181174, also known as BMY-25067, is a semi-synthetic analogue of MMC created by substitution of the […] amino group by a nitrophenyl disulphide moiety (Figure 1). […] It is not known what form of BMS-181174 enters cells. However, it is possible that, after systemic administration, several forms of the drug in addition to the parent compound may be present, including mixed disulphides with endogenous thiols (such as cysteine, glutathione and methionine), methylated TEMMC and TEMMC disulphide. […] The anti-tumour effects of BMS-1 81174 have been evaluated in vivo (Bradner et al, 1990). […] The selection of the starting dose for the clinical study was based on the toxic low dose (TLD) in the dog.
# [2] = tested on: patients with histologically proven advanced cancer
# Procedure: as §1
# [3] = tested on: histologically proven advanced cancer
# Procedure: as §1
# rats = details: of three species tested (mice, rats and dogs) in rats only; ref Bregman et al, 1989; cited from earlier work
# [4] = tested on: highly MMC-resistant P388; details: ref Bradner et al, 1990; cited from earlier work
# [5] = tested on: subline of L1210 partly resistant to MMC; details: ref Bradner et al, 1990; cited from earlier work
# mice [6] = details: respective maximum non-lethal doses in mice; ref Bradner et al, 1990; cited from earlier work
# [7] = tested on: MMC-resistant tumour cell lines; details: in vitro, ref Rockwell et al, 1995, cited from earlier work
# [8] = preliminary in vitro studies; presumably disulphide exchange with thiols; cited from earlier work
# B 16 melanoma = details: drug and tumour both intraperitoneal, or i.v. against subcutaneous tumour; ref Bradner et al, 1990; cited from earlier work
# mice [9] = details: single intravenous dose, ref Nicaise and Usakewicz, 1989; cited from earlier work
# [10] = tested on: patients with solid tumors; details: similar doses given by 6-h infusion; ref Planting et al, 1994; cited from earlier work
# patients = details: clinical use of MMC, Rabadi et al, 1982, cited from earlier work
# [11] = 65 mg m-2, 12 patients all pretreated with chemotherapy
# [12] = 75 mg m-2, 14 patients with no prior chemotherapy
# [13] = 75 mg m-2, six previously treated patients
smiles,measurement,setting,value
"CO[C@@]12[C@H](COC(N)=O)C3=C(C(=O)C(C)=C(NCCSSc4ccc([N+](=O)[O-])cc4)C3=O)N1C[C@@H]1N[C@@H]12 [BMS-181174, N-7[2-(4-nitrophenyldithio)ethyl] mitomycin C]",neutropenia and thrombocytopenia compared with MMC,ferrets,less neutropenic and much less thrombocytopenic
same,toxic low dose (TLD),dog,2.5 mg m-2
same,preclinical toxicity,"mice, rats and dogs; preclinical testing of MMC analogues, ref Bregman et al, 1989",myelosuppression and proteinuria
same,myelosuppression compared with parent compound MMC,"mice, rats and dogs; preclinical, ref Doyle and Vyas, 1990",marginally less myelosuppressive than the parent compound
same,plasma levels of TEMMC,"[1]; 0.8 and 1.6 mg m-2 dose levels, assay lower limit of quantitation 50 ng ml-1",not sufficiently sensitive to quantify plasma levels
same,dose linearity of pharmacokinetics,[1]; in vivo,dose linear
same,"Thrombophlebitis, worst grade 0, no. of patients","[2]; 65.0 mg m-2, 12 patients",7
same,"Thrombophlebitis, worst grade 1, no. of patients","[2]; 65.0 mg m-2, 12 patients",0
same,"Thrombophlebitis, worst grade 2, no. of patients","[2]; 65.0 mg m-2, 12 patients",4
same,"Thrombophlebitis, worst grade 3, no. of patients","[2]; 65.0 mg m-2, 12 patients",1
same,"Thrombophlebitis, worst grade 4, no. of patients","[2]; 65.0 mg m-2, 12 patients",1
same,"grade 4 anaemia, incidence",[2]; [11],8%
same,"grade 4 thrombocytopenia, incidence",[2]; [11],17%
same,"grade 3-4 anaemia, incidence",[2]; [12],7%
same,"grade 3-4 neutropenia, incidence",[2]; [12],7%
same,"grade 3-4 thrombocytopenia, incidence",[2]; [12],21%
same,patients with grade 4 thrombocytopenia (total),"[2]; 75 mg m-2, 20 patients",eight
same,"Thrombophlebitis, worst grade 0, no. of patients","[2]; 75.0 mg m-2, 20 patients",12
same,"Thrombophlebitis, worst grade 1, no. of patients","[2]; 75.0 mg m-2, 20 patients",0
same,"Thrombophlebitis, worst grade 2, no. of patients","[2]; 75.0 mg m-2, 20 patients",3
same,"Thrombophlebitis, worst grade 3, no. of patients","[2]; 75.0 mg m-2, 20 patients",3
same,"Thrombophlebitis, worst grade 4, no. of patients","[2]; 75.0 mg m-2, 20 patients",2
same,"grade 3-4 anaemia, patients",[2]; [13],none
same,"grade 3-4 neutropenia, incidence",[2]; [13],33%
same,"grade 3-4 thrombocytopenia, incidence",[2]; [13],83%
same,"thrombophlebitis, incidence","[2]; 31 patients treated at 7.5-50 mg m-2, generally grade 1-2",26%
same,"thrombophlebitis of grade 3-4, incidence",[2]; 32 evaluable patients treated at 65-75 mg m-2,22%
same,treatment discontinued because of toxicity,[2]; 32 patients at 65-75 mg m-2,53%
same,"significant reduction in LVEF, incidence","[2]; 62 evaluable patients, all dose levels",15%
same,patients who died suddenly with pneumonia/pneumonitis thought drug-related,[2]; 65-75 mg m-2,Three
same,median nadir times for neutropenia,[2]; 65-75 mg m-2 (discussion),15 to 19 days
same,nadirs for thrombocytopenia (median time),[2]; 65-75 mg m-2 (discussion),16 to 24 days
same,"Haemoglobin, worst WHO grade 1, no. of patients","[2]; 75-T, 6 patients",2
same,"Haemoglobin, worst WHO grade 2, no. of patients","[2]; 75-T, 6 patients",4
same,"Haemoglobin, worst WHO grade 3, no. of patients","[2]; 75-T, 6 patients",0
same,"Haemoglobin, worst WHO grade 4, no. of patients","[2]; 75-T, 6 patients",0
same,"Neutrophils, worst WHO grade 0, no. of patients","[2]; 75-T, 6 patients",1
same,"Neutrophils, worst WHO grade 1, no. of patients","[2]; 75-T, 6 patients",1
same,"Neutrophils, worst WHO grade 2, no. of patients","[2]; 75-T, 6 patients",2
same,"Neutrophils, worst WHO grade 3, no. of patients","[2]; 75-T, 6 patients",2
same,"Neutrophils, worst WHO grade 4, no. of patients","[2]; 75-T, 6 patients",0
same,"Platelets, worst WHO grade 0, no. of patients","[2]; 75-T, 6 patients",1
same,"Platelets, worst WHO grade 1, no. of patients","[2]; 75-T, 6 patients",0
same,"Platelets, worst WHO grade 2, no. of patients","[2]; 75-T, 6 patients",0
same,"Platelets, worst WHO grade 3, no. of patients","[2]; 75-T, 6 patients",2
same,"Platelets, worst WHO grade 4, no. of patients","[2]; 75-T, 6 patients",3
same,"Haemoglobin, worst WHO grade 0, no. of patients","[2]; 75-T: 75 mg m-2, prior chemotherapy, 6 patients",0
same,"Haemoglobin, worst WHO grade 1, no. of patients","[2]; 75-U, 14 patients",3
same,"Haemoglobin, worst WHO grade 2, no. of patients","[2]; 75-U, 14 patients",7
same,"Haemoglobin, worst WHO grade 3, no. of patients","[2]; 75-U, 14 patients",1
same,"Haemoglobin, worst WHO grade 4, no. of patients","[2]; 75-U, 14 patients",0
same,"Neutrophils, worst WHO grade 0, no. of patients","[2]; 75-U, 14 patients",10
same,"Neutrophils, worst WHO grade 1, no. of patients","[2]; 75-U, 14 patients",1
same,"Neutrophils, worst WHO grade 2, no. of patients","[2]; 75-U, 14 patients",2
same,"Neutrophils, worst WHO grade 3, no. of patients","[2]; 75-U, 14 patients",0
same,"Neutrophils, worst WHO grade 4, no. of patients","[2]; 75-U, 14 patients",1
same,"Platelets, worst WHO grade 0, no. of patients","[2]; 75-U, 14 patients",7
same,"Platelets, worst WHO grade 1, no. of patients","[2]; 75-U, 14 patients",1
same,"Platelets, worst WHO grade 2, no. of patients","[2]; 75-U, 14 patients",3
same,"Platelets, worst WHO grade 3, no. of patients","[2]; 75-U, 14 patients",0
same,"Platelets, worst WHO grade 4, no. of patients","[2]; 75-U, 14 patients",3
same,"Haemoglobin, worst WHO grade 0, no. of patients","[2]; 75-U: 75 mg m-2, previously untreated, 14 patients",3
same,"possible renal toxicity (rise in serum creatinine), incidence","[2]; 82 patients, all dose levels",4%
same,possible treatment-related deaths,"[2]; 82 patients, all dose levels",four
same,"grade 1-2 nausea, number of patients","[2]; 82 patients, with prophylactic antiemetics",21
same,"moderate or severe emesis (grade 2-3), number of patients","[2]; 82 patients, thirteen of them treated at 65-75 mg m-2",fifteen
same,"time for platelet counts to recover to normal, median","[2]; after 65 mg m-2, range 21-45 days",25 days
same,"time for granulocyte counts to recover to normal, median","[2]; after 65 mg m-2, range 27-42 days",34.5 days
same,"time for granulocyte counts to recover to normal, median","[2]; after 75 mg m-2, range 19-43",22.5 days
same,"time for platelet counts to recover to normal, median","[2]; after 75 mg m-2, range 20-46",29.5 days
same,"time to nadir blood counts, median",[2]; all dose levels,15 to 22 days
same,maximum-tolerated dose,"[2]; chemotherapy-naive patients, i.v. every 28 days",75 mg m-2
same,"Significant reduction in LVEF, no. of patients","[2]; dose 0.8 mg m-2, 4 patients (3 not evaluable)",0
same,"Significant reduction in LVEF, no. of patients","[2]; dose 1.6 mg m-2, 3 patients (1 not evaluable)",1
same,"Significant reduction in LVEF, no. of patients","[2]; dose 3.2 mg m-2, 7 patients (0 not evaluable)",2
same,"Significant reduction in LVEF, no. of patients","[2]; dose 5.0 mg m-2, 5 patients (1 not evaluable)",1
same,"Significant reduction in LVEF, no. of patients","[2]; dose 7.5 mg m-2, 5 patients (0 not evaluable)",0
same,"Significant reduction in LVEF, no. of patients","[2]; dose 11.5 mg m-2, 7 patients (2 not evaluable)",0
same,"Significant reduction in LVEF, no. of patients","[2]; dose 19 mg m-2, 8 patients (3 not evaluable)",0
same,"Significant reduction in LVEF, no. of patients","[2]; dose 32 mg m-2, 5 patients (1 not evaluable)",1
same,"Significant reduction in LVEF, no. of patients","[2]; dose 50 mg m-2, 6 patients (2 not evaluable)",1
same,"Significant reduction in LVEF, no. of patients","[2]; dose 65 mg m-2, 12 patients (3 not evaluable)",0
same,"Significant reduction in LVEF, no. of patients","[2]; dose 75 mg m-2, 20 patients (4 not evaluable)",3
same,"thrombophlebitis of grades 1-3, incidence","[2]; dose levels 0.8-19 mg m-2, bolus injection",13%
same,dose-limiting toxicity,[2]; i.v. every 28 days,myelosuppression
same,maximum-tolerated dose,"[2]; previously treated patients, i.v. every 28 days",65 mg m-2
same,"significant reduction in LVEF, incidence",[2]; sixteen evaluable patients at 75 mg m-2,19%
same,haematological toxicity (grade >3),[2]; up to 50 mg m-2,no significant
same,partial response rate,[3]; 3 out of 32 patients treated at 65-75 mg m-2,9%
same,treatment discontinued for progressive disease,[3]; 22 out of 32 patients at 65-75 mg m-2,69%
same,treatment discontinued because of progressive disease,[3]; 44 of 50 patients treated at 0.8-50 mg m-2,88%
same,partial response rate,[3]; 50 patients treated at 0.8-50 mg m-2,2%
same,"minor response (MR), no. of patients","[3]; Total, 82 patients",1
same,"partial response (PR), no. of patients","[3]; Total, 82 patients",4
same,"stable disease (SD), no. of patients","[3]; Total, 82 patients",8
same,"progressive disease (PD), no. of patients","[3]; Total, 82 patients (10 not evaluable)",59
same,overall response rate,[3]; all dose levels (discussion),6%
same,partial response rate,"[3]; overall, 4 out of 82 patients, 0.8-75 mg m-2",5%
same,cardiotoxicity,rats,dose-related cardiotoxicity
same,anti-tumour activity,[4],inactive
same,anti-tumour activity,[5],slight activity
same,neutropenia compared with MMC,mice [6],less neutropenia than MMC
same,toxicity in hypoxic versus aerobic conditions,[7]; unlike MMC,not more toxic in hypoxic than aerobic conditions
same,activity against MMC-resistant tumour cell lines,[7],active
same,disappearance in plasma,[8],rapidly
same,anti-tumour activity compared with MMC,B 16 melanoma,superior activity
same,LD10,mice [9],24.9 mg m-2
same,toxicity of 6-h infusion,[10],local venous toxicity with thrombophlebitis and venospasm
"CO[C@@]12[C@H](COC(N)=O)C3=C(C(=O)C(C)=C(N)C3=O)N1C[C@@H]1N[C@@H]12 [MMC, Mitomycin C]",patients with a rise in serum creatinine,"patients; ref Martino et al, 1979, Ratanatharathom et al",2%
same,dose-limiting toxicity,"patients; ref Carter and Crooke, 1979",myelosuppression

# Source: PMC2150373, “Phase I study of the mitomycin C analogue BMS-181174” (British Journal of Cancer, 1998)
